According to patent publication US11241440B2, “Dihydrooxadiazine compounds for treating infections and cancer” (VALORALIA I MÁS D, SL, priority 2016, dated 2022):

Experiments:
Aspergillus flavus = test: EUCAST broth dilution antifungal susceptibility test (MIC); type: cell-based; settings: 100% inhibition, 24 hours at 35° C., dilution range 64 to 0.12 mg/l
Protocol: (§1) Filamentous fungi and yeasts strains, from clinical origin, were supplied by Microbiology Service from The Princess Hospital, Madrid. They are detailed in Table III. Filamentous fungi and yeast cells suspensions in distilled water was prepared from a culture of 24-48 h, depending on species, in Sabouraud agar. Each suspension was adjusted to a fixed size inoculum of 1-5×10^8 CFU/ml with a spectrophotometer (Ferraro, M J National Committee for Clinical Laboratory Standards. 2000). Antifungal susceptibility tests were developed following the standardized methodology detailed by the European Committee on Antimicrobial Susceptibility Testing (EUCAST) documents 7.2 (method for the determination of broth dilution minimum inhibitory concentrations of antifungal agents for yeasts EDef 7.2) and 9.2 (Method for the determination of broth dilution minimum inhibitory concentrations of antifungal agents for conidia forming foulds). The compound was dissolved in DMSO and diluted with RPMI plates with 2% glucose to pH 7 with MOPS buffer. […] Plates were inoculated with a yeast suspension or filamentous fungal spores (1-5×10^5 cls/ml). The results were evaluated after 24 hours incubation at 35° C. and absorbance reading at 530 nm.

Aspergillus fumigatus = test: as above; type: cell-based; settings: 100% inhibition, 24 hours at 35° C., dilution range 64 to 0.12 mg/l
Protocol: as §1

Aspergillus terreus = test: as above; type: cell-based; settings: 100% inhibition, 24 hours at 35° C., dilution range 64 to 0.12 mg/l
Protocol: as §1

Scedosporium prolificans = test: as above; type: cell-based; settings: 100% inhibition, 24 hours at 35° C., dilution range 64 to 0.12 mg/l
Protocol: as §1

C. parapsilosis = C. parapsilosis CP-007; cited from earlier work; note: key: I = intermediate activity; S = susceptibility; R = Resistance
S. prolificans = S. prolificans SP-003; cited from earlier work; note: key: I = intermediate activity; S = susceptibility; R = Resistance
A. fumigatus = A. fumigatus AFu-001; cited from earlier work; note: key: I = intermediate activity; S = susceptibility; R = Resistance
A. flavus = A. flavus AF-001; cited from earlier work; note: key: I = intermediate activity; S = susceptibility; R = Resistance
A. terreus = A. terreus ATe-001; cited from earlier work; note: key: I = intermediate activity; S = susceptibility; R = Resistance

| SMILES | MIC (minimum inhibitory concentration) (Aspergillus flavus) | MIC (minimum inhibitory concentration) (Aspergillus fumigatus) | MIC (minimum inhibitory concentration) (Aspergillus terreus) | MIC (minimum inhibitory concentration) (Scedosporium prolificans) | Characteristics of the strains: susceptibility class (C. parapsilosis) | Characteristics of the strains: susceptibility class (S. prolificans) | Characteristics of the strains: susceptibility class (A. fumigatus) | Characteristics of the strains: susceptibility class (A. flavus) | Characteristics of the strains: susceptibility class (A. terreus) |
| --- | --- | --- | --- | --- | --- | --- | --- | --- | --- |
| C[C@@H]1[C@H](O)[C@@H](C)/C=C/C=C/C=C/C=C/C=C/C=C/C=C/[C@H](O[C@@H]2O[C@H](C)[C@@H](O)[C@H](N)[C@@H]2O)C[C@@H]2O[C@](O)(C[C@@H](O)C[C@@H](O)[C@H](O)CC[C@@H](O)C[C@@H](O)CC(=O)O[C@H]1C)C[C@H](O)[C@H]2C(=O)O [Amphotericin B] | 1 | 0.5 | 2 | >16 | I | R | S | I | I |
| C[C@@H](c1ncncc1F)[C@](O)(Cn1cncn1)c1ccc(F)cc1F [Voriconazole] | 1 | 0.5 | 0.5 | >8 |  | R |  |  |  |
